# Laboratory results published in ChEMBL document CHEMBL3608214, “Optimization of Novel Antagonists to the Neurokinin-3 Receptor for the Treatment of Sex-Hormone Disorders (Part II)” (ACS Med Chem Lett, 2015).
# What was measured:
# [1] = Distribution coefficient, log D of the compound at pH 7.4; type: physicochemical; conditions: octanol/water
# [2] = target: T1, Neuromedin-K receptor (Homo sapiens, UniProt P29371)
# T1 sequence (P29371 whole entry): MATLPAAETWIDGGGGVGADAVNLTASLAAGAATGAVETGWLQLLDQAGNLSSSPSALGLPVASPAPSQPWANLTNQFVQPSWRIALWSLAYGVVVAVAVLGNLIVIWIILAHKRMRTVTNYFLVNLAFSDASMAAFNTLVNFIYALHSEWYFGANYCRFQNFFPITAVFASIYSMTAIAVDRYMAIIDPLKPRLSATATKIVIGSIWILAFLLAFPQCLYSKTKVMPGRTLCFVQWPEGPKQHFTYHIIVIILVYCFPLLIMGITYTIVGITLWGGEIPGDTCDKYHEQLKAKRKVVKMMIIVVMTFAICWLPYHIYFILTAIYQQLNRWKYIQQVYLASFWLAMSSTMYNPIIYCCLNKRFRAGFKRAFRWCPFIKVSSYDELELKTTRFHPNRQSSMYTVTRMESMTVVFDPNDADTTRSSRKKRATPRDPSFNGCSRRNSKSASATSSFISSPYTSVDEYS
# [3] = target: Cytochrome P450 3A4 (Homo sapiens, UniProt P08684)
# Cytochrome P450 3A4, sequence (P08684 whole entry): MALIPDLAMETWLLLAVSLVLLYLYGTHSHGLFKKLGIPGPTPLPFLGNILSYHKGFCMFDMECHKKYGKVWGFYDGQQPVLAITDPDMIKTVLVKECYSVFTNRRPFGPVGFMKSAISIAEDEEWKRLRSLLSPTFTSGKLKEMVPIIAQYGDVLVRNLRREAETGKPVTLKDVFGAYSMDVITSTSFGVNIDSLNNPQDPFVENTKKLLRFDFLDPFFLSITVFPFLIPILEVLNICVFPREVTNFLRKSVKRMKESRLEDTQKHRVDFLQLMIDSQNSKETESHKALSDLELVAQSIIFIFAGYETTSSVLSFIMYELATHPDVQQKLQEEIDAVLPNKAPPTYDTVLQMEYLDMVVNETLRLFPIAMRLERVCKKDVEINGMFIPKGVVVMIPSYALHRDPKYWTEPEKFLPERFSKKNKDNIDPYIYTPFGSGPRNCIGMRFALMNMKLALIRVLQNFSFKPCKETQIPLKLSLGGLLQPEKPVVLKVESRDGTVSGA
# Description: Inhibition of CYP3A4 (unknown origin)
# [4] = target: Cytochrome P450 2D6 (Homo sapiens, UniProt P10635)
# Cytochrome P450 2D6, sequence (P10635 whole entry): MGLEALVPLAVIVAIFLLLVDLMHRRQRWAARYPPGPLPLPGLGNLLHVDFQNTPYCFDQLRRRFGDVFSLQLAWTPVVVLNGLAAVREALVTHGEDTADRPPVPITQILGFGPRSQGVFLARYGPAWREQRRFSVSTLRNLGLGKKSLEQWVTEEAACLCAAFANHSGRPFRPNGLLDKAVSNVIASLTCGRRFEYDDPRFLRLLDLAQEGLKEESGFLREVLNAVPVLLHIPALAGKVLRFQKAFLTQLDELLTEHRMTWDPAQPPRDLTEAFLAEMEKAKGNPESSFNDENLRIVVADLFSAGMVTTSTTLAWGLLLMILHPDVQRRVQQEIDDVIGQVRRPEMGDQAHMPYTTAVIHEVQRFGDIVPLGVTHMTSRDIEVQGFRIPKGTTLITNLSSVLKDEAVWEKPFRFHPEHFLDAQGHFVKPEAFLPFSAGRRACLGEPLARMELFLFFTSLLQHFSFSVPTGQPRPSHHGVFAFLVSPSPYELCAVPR
# Description: Inhibition of CYP2D6 (unknown origin)
# [5] = target: Cytochrome P450 2C9 (Homo sapiens, UniProt P11712)
# Cytochrome P450 2C9, sequence (P11712 whole entry): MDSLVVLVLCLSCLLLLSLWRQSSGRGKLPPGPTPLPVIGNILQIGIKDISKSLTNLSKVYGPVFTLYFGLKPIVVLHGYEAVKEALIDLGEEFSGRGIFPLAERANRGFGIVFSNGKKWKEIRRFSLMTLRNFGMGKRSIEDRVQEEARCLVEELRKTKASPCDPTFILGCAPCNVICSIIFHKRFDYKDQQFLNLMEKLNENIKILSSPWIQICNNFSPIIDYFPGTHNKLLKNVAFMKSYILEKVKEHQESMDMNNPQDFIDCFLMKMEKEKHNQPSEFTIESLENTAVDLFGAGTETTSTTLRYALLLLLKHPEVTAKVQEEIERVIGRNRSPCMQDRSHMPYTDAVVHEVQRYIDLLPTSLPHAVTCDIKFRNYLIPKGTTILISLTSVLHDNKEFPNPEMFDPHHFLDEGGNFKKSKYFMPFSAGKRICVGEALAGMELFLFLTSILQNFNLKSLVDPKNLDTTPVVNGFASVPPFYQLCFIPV
# Description: Inhibition of CYP2C9 (unknown origin)
# [6] = target: Cytochrome P450 2C19 (Homo sapiens, UniProt P33261)
# Cytochrome P450 2C19, sequence (P33261 whole entry): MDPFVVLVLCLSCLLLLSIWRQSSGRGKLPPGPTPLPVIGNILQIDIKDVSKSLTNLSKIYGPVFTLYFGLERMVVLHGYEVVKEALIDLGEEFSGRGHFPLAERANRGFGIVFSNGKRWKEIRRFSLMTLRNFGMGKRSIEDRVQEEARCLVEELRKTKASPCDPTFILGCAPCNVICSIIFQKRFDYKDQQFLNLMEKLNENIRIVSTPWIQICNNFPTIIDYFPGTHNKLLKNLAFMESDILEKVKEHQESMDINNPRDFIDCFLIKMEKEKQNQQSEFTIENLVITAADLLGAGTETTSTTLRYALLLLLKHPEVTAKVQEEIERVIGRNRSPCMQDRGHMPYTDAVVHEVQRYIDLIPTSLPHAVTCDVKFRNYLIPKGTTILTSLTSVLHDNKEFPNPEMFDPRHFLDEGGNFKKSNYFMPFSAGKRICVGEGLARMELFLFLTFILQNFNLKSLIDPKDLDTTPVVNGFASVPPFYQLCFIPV
# Description: Inhibition of CYP2C19 (unknown origin)
# [7] = target: T2, Cytochrome P450 1A2 (Homo sapiens, UniProt P05177)
# T2 sequence (P05177 whole entry): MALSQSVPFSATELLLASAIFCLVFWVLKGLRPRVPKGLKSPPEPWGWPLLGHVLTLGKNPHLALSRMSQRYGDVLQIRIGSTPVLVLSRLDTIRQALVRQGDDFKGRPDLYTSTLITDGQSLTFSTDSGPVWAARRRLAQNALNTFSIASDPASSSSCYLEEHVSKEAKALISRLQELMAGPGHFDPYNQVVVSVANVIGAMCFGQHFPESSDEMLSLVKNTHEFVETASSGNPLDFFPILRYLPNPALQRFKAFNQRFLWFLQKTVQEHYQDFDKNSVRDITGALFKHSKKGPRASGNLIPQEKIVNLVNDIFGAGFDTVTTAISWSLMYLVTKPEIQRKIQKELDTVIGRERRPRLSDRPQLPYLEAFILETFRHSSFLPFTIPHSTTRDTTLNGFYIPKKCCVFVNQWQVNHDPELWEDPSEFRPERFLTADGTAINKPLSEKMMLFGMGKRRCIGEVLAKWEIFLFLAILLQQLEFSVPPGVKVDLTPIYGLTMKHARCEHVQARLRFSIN
# Description: Inhibition of CYP1A2 (unknown origin)
# [8] = target: T3, Neuromedin-K receptor (Rattus norvegicus, UniProt P16177); experiment: Binding affinity to rat NK3R
# T3 sequence (P16177 whole entry): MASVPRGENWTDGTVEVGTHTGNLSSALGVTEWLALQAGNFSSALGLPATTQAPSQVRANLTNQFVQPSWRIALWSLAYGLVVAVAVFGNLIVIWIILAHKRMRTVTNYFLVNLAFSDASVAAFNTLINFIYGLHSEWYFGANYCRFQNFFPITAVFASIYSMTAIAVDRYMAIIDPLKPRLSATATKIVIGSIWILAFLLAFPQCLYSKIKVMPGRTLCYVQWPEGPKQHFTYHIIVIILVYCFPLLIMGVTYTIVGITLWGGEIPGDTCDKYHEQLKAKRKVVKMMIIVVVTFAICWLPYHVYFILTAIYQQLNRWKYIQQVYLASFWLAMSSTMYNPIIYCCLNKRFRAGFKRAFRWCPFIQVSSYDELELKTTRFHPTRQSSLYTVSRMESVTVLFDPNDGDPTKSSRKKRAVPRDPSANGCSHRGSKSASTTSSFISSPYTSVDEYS
# [9] = tested on: Rattus norvegicus; experiment: Inhibition of luteinizing hormone release in orally dosed rat; conditions: po, read-out: MED
# [10] = target: T1, Neuromedin-K receptor; remark: listed apart in the source
# [11] = Volume of distribution at steady state in rat at 1 mg/kg, iv; conditions: in vivo
# [12] = Half life in rat at 1 mg/kg, iv; conditions: in vivo
# [13] = Unbound fraction in monkey plasma at 5 mg/kg, po after 90 mins; conditions: rhesus monkey
# [14] = Unbound fraction in rat brain at 1 mg/kg after 60 mins
# [15] = Ratio of unbound drug concentration in brain to plasma of rat at 1 mg/kg after 60 mins
# [16] = Volume of distribution at steady state in monkey at 10 mg/kg, iv; conditions: rhesus monkey, in vivo
# [17] = Binding affinity to monkey NK3R
# [18] = tested on: Cynomolgus monkey; experiment: Inhibition of luteinizing hormone release in orally dosed castrated cynomolgus monkey; conditions: Macaca fascicularis, po, read-out: MED
# [19] = target: Voltage-gated inwardly rectifying potassium channel KCNH2 (Homo sapiens, UniProt Q12809)
# Voltage-gated inwardly rectifying potassium channel KCNH2, sequence (Q12809 whole entry): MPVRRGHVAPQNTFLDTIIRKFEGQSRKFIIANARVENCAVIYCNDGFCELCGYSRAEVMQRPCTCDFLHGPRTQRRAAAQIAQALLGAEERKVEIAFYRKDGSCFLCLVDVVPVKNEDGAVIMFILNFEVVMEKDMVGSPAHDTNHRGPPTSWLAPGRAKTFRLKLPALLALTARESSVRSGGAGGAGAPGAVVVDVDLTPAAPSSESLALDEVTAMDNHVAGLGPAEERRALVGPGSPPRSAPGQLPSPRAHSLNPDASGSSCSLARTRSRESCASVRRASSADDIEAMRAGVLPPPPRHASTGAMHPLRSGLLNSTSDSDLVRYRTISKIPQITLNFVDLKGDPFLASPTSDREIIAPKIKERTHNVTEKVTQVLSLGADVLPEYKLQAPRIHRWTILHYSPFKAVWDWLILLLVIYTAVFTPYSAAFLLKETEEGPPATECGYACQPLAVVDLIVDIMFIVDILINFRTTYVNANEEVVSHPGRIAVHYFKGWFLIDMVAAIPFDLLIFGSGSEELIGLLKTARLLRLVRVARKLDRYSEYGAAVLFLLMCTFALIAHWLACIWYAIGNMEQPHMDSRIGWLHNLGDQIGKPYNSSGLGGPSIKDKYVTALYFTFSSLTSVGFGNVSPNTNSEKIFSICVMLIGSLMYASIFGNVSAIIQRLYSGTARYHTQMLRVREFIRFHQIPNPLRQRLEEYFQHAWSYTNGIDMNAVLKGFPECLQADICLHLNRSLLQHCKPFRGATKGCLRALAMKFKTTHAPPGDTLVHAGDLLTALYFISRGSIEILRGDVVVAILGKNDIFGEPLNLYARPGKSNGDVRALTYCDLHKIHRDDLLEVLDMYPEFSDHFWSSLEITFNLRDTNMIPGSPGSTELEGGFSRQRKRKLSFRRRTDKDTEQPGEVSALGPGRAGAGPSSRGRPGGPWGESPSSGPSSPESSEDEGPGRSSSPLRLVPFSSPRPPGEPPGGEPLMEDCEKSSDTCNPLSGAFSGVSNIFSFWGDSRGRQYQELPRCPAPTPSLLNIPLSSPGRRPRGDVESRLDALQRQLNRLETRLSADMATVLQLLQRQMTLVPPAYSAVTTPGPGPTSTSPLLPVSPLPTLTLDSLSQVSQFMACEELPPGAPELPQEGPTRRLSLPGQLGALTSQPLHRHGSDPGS
logD [1],SMILES,Ki [2],Ki [8],minimal effective dose [9],IC50 [10],other results
5,C[C@@H]1c2nnc(-c3csc(-c4ccc(F)cc4F)n3)n2CCN1C(=O)c1ccc(-c2cccs2)cc1,,,,,
,Cc1nsc(-c2nnc3n2CCN(C(=O)c2ccccc2)[C@@H]3C)n1,50.1 nM,573 nM,30 mg/kg,63.1 nM,
0.8,Cc1nnc(-c2nnc3n2CCN(C(=O)c2ccc(F)cc2)[C@@H]3C)s1,,,,,
,Cc1nsc(-c2nnc3n2CCN(C(=O)c2ccc(F)cc2)[C@@H]3CCO)n1,31.6 nM,244 nM,,79.4 nM,
,Cc1nsc(-c2nnc3n2CCN(C(=O)c2ccc(F)cc2)C3)n1,100 nM,2030 nM,30 mg/kg,158 nM,
,C[C@@H]1c2nnc(-c3nc(C(F)(F)F)ns3)n2CCN1C(=O)c1ccc(F)cc1,,85 nM,10 mg/kg,,
1.7,CC(C)c1noc(-c2nnc3n2CCN(C(=O)c2ccc(F)cc2)[C@@H]3C)n1,25.1 nM,,,39.8 nM,
,Cc1nsc(-c2nnc3n2CCN(C(=O)c2ccc(F)cc2)[C@@H]3C)n1 [FEZOLINETANT],25.1 nM,219 nM,,20 nM,Vd [11]: 0.6 L/kg; half-life [12]: 4.65 h
,Cc1nsc(-c2nnc3n2CCN(C(=O)c2ccc(Cl)cc2)[C@@H]3C)n1,20 nM,,,31.6 nM,
,Cc1nc(-c2nnc3n2CCN(C(=O)c2ccc(-c4cccs4)cc2)[C@@H]3C)cs1,,,60 mg/kg,,logD ([1]; read-out: logD): 3.1; fraction unbound at […] [13]: 0.043; fraction unbound at 1 h [14]: 0.028; Kp uu at 1 h [15]: 0.14; Vd [16]: 1.52 L/kg; Ki [17]: 20 nM; minimal effective dose [18]: 20 mg/kg; IC50 [19]: 24000 nM
1.1,C[C@@H]1c2nnc(-c3ncns3)n2CCN1C(=O)c1ccc(F)cc1,,,,,

SMILES,logD [1],Ki [2],Ki [8],minimal effective dose [9],IC50 [10],other results
Cc1noc(-c2nnc3n2CCN(C(=O)c2ccc(F)cc2)[C@@H]3C)n1,0.7,126 nM,,,,IC50 [3]: > 100000 nM; IC50 [4]: > 100000 nM; IC50 [5]: 42000 nM; IC50 [6]: 34000 nM; IC50 [7]: 86000 nM
Cc1nsc(-c2nnc3n2CCN(C(=O)c2ccc(F)cc2)C3(C)C)n1,2,,,,,IC50 [3]: > 100000 nM; IC50 [4]: > 100000 nM; IC50 [5]: 12000 nM; IC50 [6]: 4000 nM; IC50 [7]: 51000 nM
